Test results taken from patent US20040014143A1, “Method and apparatus for detecting and monitoring peptides, and peptides identified therewith” (priority 2002, published 2004).
Where two headings read alike, the source gives them in different places.

How the values were obtained:
GABA production = settings: previous microdialysis studies; cited from earlier work
[1] = system: neurotransmitter levels (aspartate, GABA, glutamate); settings: infusion of 10 μM peptide into the dialysis probe, n=2
opioid receptors = assay: Receptor assays probing binding to opioid receptors; settings: data not shown

Row | Molecule | effect on GABA production (GABA production) | glutamate levels (GABA production) | GABA level (change in words) [1] | aspartate level (change in words) [1] | glutamate levels (change in words) [1] | GABA level (change in words) ([1]; listed as I11lo peptide) | aspartate level (change in words) ([1]; listed as I11lo peptide) | binding to opioid receptors (opioid receptors)
1 | CN1CCc2cccc3c2[C@H]1Cc1ccc(O)c(O)c1-3 [apomorphine] | stimulates GABA production | remain the same | – | – | – | – | – | –
2 | YGGFL [Leu-enkephalin] | inhibits nicotine-stimulated GABA production | – | – | – | – | – | – | –
3 | SPQLEDEAKE (listed as Rattus norvegicus) [peptide I1-10, novel product of preproenkephalin A processing] | – | – | increase | increase | remained the same | increases | increases | negative
